Key:
Assay in all cases: relative viability (nuclei count vs DMSO), 5 days (fraction); higher = more cells survive
[1] = compound: COc1cc2nccc(Oc3ccc(NC(=O)C4(C(=O)Nc5ccc(F)cc5)CC4)cc3)c2cc1OC [Cabozantinib] + C[C@@H](Oc1cc(-c2cnn(C3CCNCC3)c2)cnc1N)c1c(Cl)ccc(F)c1Cl [Crizotinib] (partner 1 µM)
Procedure, shortened: (§1)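 Lung cancer cell lines in 1536-well plates got either a single drug or a fixed anchor-drug dose together with five library-drug doses (not always all listed) in √10 steps, by pin tool, on the day after seeding. Nuclei were counted after 5 days, and relative viability is the treated-to-vehicle ratio of nuclei counts. Values are medians of duplicate plates.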

[2] = compound: COc1cc2nccc(Oc3ccc(NC(=O)C4(C(=O)Nc5ccc(F)cc5)CC4)cc3)c2cc1OC [Cabozantinib] + CC(C)C[C@H](NC(=O)[C@H](Cc1ccccc1)NC(=O)c1cnccn1)B(O)O [Bortezomib] (partner 0.002 µM)
Procedure, shortened: as §1

Cabozantinib + Dasatinib = compound: COc1cc2nccc(Oc3ccc(NC(=O)C4(C(=O)Nc5ccc(F)cc5)CC4)cc3)c2cc1OC [Cabozantinib] + Cc1nc(Nc2ncc(C(=O)Nc3c(C)cccc3Cl)s2)cc(N2CCN(CCO)CC2)n1 [Dasatinib] (partner 0.075 µM)
Procedure, shortened: as §1

Kobe2602 + Bortezomib = compound: C1=CC(=CC=C1NC(=S)NNC2=C(C=C(C=C2[N+](=O)[O-])C(F)(F)F)[N+](=O)[O-])F [Kobe2602] + CC(C)C[C@H](NC(=O)[C@H](Cc1ccccc1)NC(=O)c1cnccn1)B(O)O [Bortezomib] (partner 0.002 µM)
Procedure, shortened: as §1

## PC-14
[1]; first compound 0.02 µM
  relative viability: 0.983
[1]; first compound 0.06325 µM
  relative viability: 0.911
[1]; first compound 0.6325 µM
  relative viability: 0.894
[1]; first compound 2 µM
  relative viability: 0.788
[2]; first compound 0.02 µM
  relative viability: 0.952
[2]; first compound 0.06325 µM
  relative viability: 0.89
[2]; first compound 0.6325 µM
  relative viability: 0.829
[2]; first compound 2 µM
  relative viability: 0.8
Cabozantinib + Dasatinib; first compound 0.02 µM
  relative viability: 0.219
Cabozantinib + Dasatinib; first compound 0.06325 µM
  relative viability: 0.339
Cabozantinib + Dasatinib; first compound 0.2 µM
  relative viability: 0.0309
Cabozantinib + Dasatinib; first compound 0.6325 µM
  relative viability: 0.246
Cabozantinib + Dasatinib; first compound 2 µM
  relative viability: 0.195
Kobe2602 + Bortezomib; first compound 0.2 µM
  relative viability: 0.814
Kobe2602 + Bortezomib; first compound 0.6325 µM
  relative viability: 0.848
Kobe2602 + Bortezomib; first compound 2 µM
  relative viability: 0.818
Kobe2602 + Bortezomib; first compound 6.325 µM
  relative viability: 0.837
Kobe2602 + Bortezomib; first compound 20 µM
  relative viability: 0.859

## NCI-H2023
[1]; first compound 0.02 µM
  relative viability: 0.746
[1]; first compound 0.06325 µM
  relative viability: 0.755
[1]; first compound 0.2 µM
  relative viability: 0.714
[1]; first compound 0.6325 µM
  relative viability: 0.601
[1]; first compound 2 µM
  relative viability: 0.724
[2]; first compound 0.02 µM
  relative viability: 0.893
[2]; first compound 0.06325 µM
  relative viability: 0.957
[2]; first compound 0.2 µM
  relative viability: 0.819
[2]; first compound 0.6325 µM
  relative viability: 0.889
[2]; first compound 2 µM
  relative viability: 1.03
Cabozantinib + Dasatinib; first compound 0.02 µM
  relative viability: 0.45
Cabozantinib + Dasatinib; first compound 0.06325 µM
  relative viability: 0.531
Cabozantinib + Dasatinib; first compound 0.2 µM
  relative viability: 0.369
Cabozantinib + Dasatinib; first compound 0.6325 µM
  relative viability: 0.311
Cabozantinib + Dasatinib; first compound 2 µM
  relative viability: 0.248
Kobe2602 + Bortezomib; first compound 0.2 µM
  relative viability: 0.954
Kobe2602 + Bortezomib; first compound 0.6325 µM
  relative viability: 0.995
Kobe2602 + Bortezomib; first compound 2 µM
  relative viability: 0.873
Kobe2602 + Bortezomib; first compound 6.325 µM
  relative viability: 0.945
Kobe2602 + Bortezomib; first compound 20 µM
  relative viability: 0.927

## ChaGo-K-1
[1]; first compound 0.02 µM
  relative viability: 1.24
[1]; first compound 0.06325 µM
  relative viability: 1.3
[1]; first compound 0.2 µM
  relative viability: 1.18
[1]; first compound 0.6325 µM
  relative viability: 1.13
[1]; first compound 2 µM
  relative viability: 1.09
[2]; first compound 0.02 µM
  relative viability: 0.829
[2]; first compound 0.06325 µM
  relative viability: 1.25
[2]; first compound 0.2 µM
  relative viability: 0.909
[2]; first compound 0.6325 µM
  relative viability: 0.804
[2]; first compound 2 µM
  relative viability: 1.04
Cabozantinib + Dasatinib; first compound 0.02 µM
  relative viability: 0.552
Cabozantinib + Dasatinib; first compound 0.06325 µM
  relative viability: 0.652
Cabozantinib + Dasatinib; first compound 0.2 µM
  relative viability: 0.519
Cabozantinib + Dasatinib; first compound 0.6325 µM
  relative viability: 0.634
Cabozantinib + Dasatinib; first compound 2 µM
  relative viability: 0.542
Kobe2602 + Bortezomib; first compound 0.2 µM
  relative viability: 1.04
Kobe2602 + Bortezomib; first compound 0.6325 µM
  relative viability: 1.09
Kobe2602 + Bortezomib; first compound 2 µM
  relative viability: 0.788
Kobe2602 + Bortezomib; first compound 6.325 µM
  relative viability: 1.06
Kobe2602 + Bortezomib; first compound 20 µM
  relative viability: 0.946

## COR-L23
[1]; first compound 0.02 µM
  relative viability: 0.73
[1]; first compound 0.06325 µM
  relative viability: 0.791
[1]; first compound 0.2 µM
  relative viability: 0.716
[1]; first compound 0.6325 µM
  relative viability: 0.621
[1]; first compound 2 µM
  relative viability: 0.544
[2]; first compound 0.02 µM
  relative viability: 1.25
[2]; first compound 0.06325 µM
  relative viability: 1
[2]; first compound 0.2 µM
  relative viability: 1.01
[2]; first compound 0.6325 µM
  relative viability: 1.06
[2]; first compound 2 µM
  relative viability: 1.07
Cabozantinib + Dasatinib; first compound 0.02 µM
  relative viability: 0.537
Cabozantinib + Dasatinib; first compound 0.06325 µM
  relative viability: 0.425
Cabozantinib + Dasatinib; first compound 0.2 µM
  relative viability: 0.466
Cabozantinib + Dasatinib; first compound 0.6325 µM
  relative viability: 0.452
Cabozantinib + Dasatinib; first compound 2 µM
  relative viability: 0.36
Kobe2602 + Bortezomib; first compound 0.2 µM
  relative viability: 0.88
Kobe2602 + Bortezomib; first compound 0.6325 µM
  relative viability: 1.04
Kobe2602 + Bortezomib; first compound 2 µM
  relative viability: 0.914
Kobe2602 + Bortezomib; first compound 6.325 µM
  relative viability: 1.07
Kobe2602 + Bortezomib; first compound 20 µM
  relative viability: 0.92

## EMC-BAC-2
[1]; first compound 0.02 µM
  relative viability: 0.841
[1]; first compound 0.06325 µM
  relative viability: 0.779
[1]; first compound 0.2 µM
  relative viability: 0.781
[1]; first compound 0.6325 µM
  relative viability: 0.817
[1]; first compound 2 µM
  relative viability: 0.827
[2]; first compound 0.02 µM
  relative viability: 0.982
[2]; first compound 0.06325 µM
  relative viability: 1.2
[2]; first compound 0.2 µM
  relative viability: 1.01
[2]; first compound 0.6325 µM
  relative viability: 1.07
[2]; first compound 2 µM
  relative viability: 1.17
Cabozantinib + Dasatinib; first compound 0.02 µM
  relative viability: 0.244
Cabozantinib + Dasatinib; first compound 0.06325 µM
  relative viability: 0.334
Cabozantinib + Dasatinib; first compound 0.2 µM
  relative viability: 0.286
Cabozantinib + Dasatinib; first compound 0.6325 µM
  relative viability: 0.292
Cabozantinib + Dasatinib; first compound 2 µM
  relative viability: 0.262
Kobe2602 + Bortezomib; first compound 0.2 µM
  relative viability: 1.08
Kobe2602 + Bortezomib; first compound 0.6325 µM
  relative viability: 1.17
Kobe2602 + Bortezomib; first compound 2 µM
  relative viability: 1.06
Kobe2602 + Bortezomib; first compound 6.325 µM
  relative viability: 1.12
Kobe2602 + Bortezomib; first compound 20 µM
  relative viability: 1.12

## LCLC-103H
[1]; first compound 0.02 µM
  relative viability: 1
[1]; first compound 0.06325 µM
  relative viability: 1.09
[1]; first compound 0.2 µM
  relative viability: 1.09
[1]; first compound 0.6325 µM
  relative viability: 1.02
[1]; first compound 2 µM
  relative viability: 1.04
[2]; first compound 0.02 µM
  relative viability: 1.09
[2]; first compound 0.06325 µM
  relative viability: 1.12
[2]; first compound 0.2 µM
  relative viability: 1.14
[2]; first compound 0.6325 µM
  relative viability: 1.03
[2]; first compound 2 µM
  relative viability: 1.03
Cabozantinib + Dasatinib; first compound 0.02 µM
  relative viability: 0.34
Cabozantinib + Dasatinib; first compound 0.06325 µM
  relative viability: 0.552
Cabozantinib + Dasatinib; first compound 0.2 µM
  relative viability: 0.398
Cabozantinib + Dasatinib; first compound 0.6325 µM
  relative viability: 0.486
Cabozantinib + Dasatinib; first compound 2 µM
  relative viability: 0.378
Kobe2602 + Bortezomib; first compound 0.2 µM
  relative viability: 1.15
Kobe2602 + Bortezomib; first compound 0.6325 µM
  relative viability: 1.11
Kobe2602 + Bortezomib; first compound 2 µM
  relative viability: 1.04
Kobe2602 + Bortezomib; first compound 6.325 µM
  relative viability: 1.13
Kobe2602 + Bortezomib; first compound 20 µM
  relative viability: 1.01

## NCI-H23
[1]; first compound 0.06325 µM
  relative viability: 0.634
[1]; first compound 0.2 µM
  relative viability: 0.503
[1]; first compound 0.6325 µM
  relative viability: 0.473
[1]; first compound 2 µM
  relative viability: 0.413
[2]; first compound 0.06325 µM
  relative viability: 1.31
[2]; first compound 0.2 µM
  relative viability: 0.996
[2]; first compound 0.6325 µM
  relative viability: 0.959
[2]; first compound 2 µM
  relative viability: 0.945
Cabozantinib + Dasatinib; first compound 0.06325 µM
  relative viability: 1.17
Cabozantinib + Dasatinib; first compound 0.2 µM
  relative viability: 0.808
Cabozantinib + Dasatinib; first compound 0.6325 µM
  relative viability: 0.936
Cabozantinib + Dasatinib; first compound 2 µM
  relative viability: 0.598
Kobe2602 + Bortezomib; first compound 0.2 µM
  relative viability: 1.01
Kobe2602 + Bortezomib; first compound 0.6325 µM
  relative viability: 1.11
Kobe2602 + Bortezomib; first compound 2 µM
  relative viability: 0.973
Kobe2602 + Bortezomib; first compound 6.325 µM
  relative viability: 0.998
Kobe2602 + Bortezomib; first compound 20 µM
  relative viability: 1.09

## NCI-H322M
[1]; first compound 0.02 µM
  relative viability: 1.02
[1]; first compound 0.06325 µM
  relative viability: 1.04
[1]; first compound 0.6325 µM
  relative viability: 0.945
[1]; first compound 2 µM
  relative viability: 0.861
[2]; first compound 0.02 µM
  relative viability: 1.2
[2]; first compound 0.06325 µM
  relative viability: 1.34
[2]; first compound 0.6325 µM
  relative viability: 1.17
[2]; first compound 2 µM
  relative viability: 1.36
Cabozantinib + Dasatinib; first compound 0.02 µM
  relative viability: 0.259
Cabozantinib + Dasatinib; first compound 0.06325 µM
  relative viability: 0.271
Cabozantinib + Dasatinib; first compound 0.2 µM
  relative viability: 0.238
Cabozantinib + Dasatinib; first compound 0.6325 µM
  relative viability: 0.264
Cabozantinib + Dasatinib; first compound 2 µM
  relative viability: 0.26
Kobe2602 + Bortezomib; first compound 0.2 µM
  relative viability: 1.23
Kobe2602 + Bortezomib; first compound 0.6325 µM
  relative viability: 1.23
Kobe2602 + Bortezomib; first compound 2 µM
  relative viability: 1.28
Kobe2602 + Bortezomib; first compound 6.325 µM
  relative viability: 1.2
Kobe2602 + Bortezomib; first compound 20 µM
  relative viability: 1.21
